{"source": "patent EP2027081B1", "about": "“THERAPEUTIC PROSTAGLANDIN COMPOUNDS FOR THE TREATMENT OF GLAUCOMA” (ALLERGAN, INC., priority 2006, dated 2007)", "key": {"hEP2/Gqs5": {"molecular_target": "T1, hEP2/Gqs5 (Homo sapiens, UniProt P43116)", "T1 construct": "expressed in transfected cells; host or cells: HEK-293(EBNA)", "T1 sequence (P43116 whole entry)": "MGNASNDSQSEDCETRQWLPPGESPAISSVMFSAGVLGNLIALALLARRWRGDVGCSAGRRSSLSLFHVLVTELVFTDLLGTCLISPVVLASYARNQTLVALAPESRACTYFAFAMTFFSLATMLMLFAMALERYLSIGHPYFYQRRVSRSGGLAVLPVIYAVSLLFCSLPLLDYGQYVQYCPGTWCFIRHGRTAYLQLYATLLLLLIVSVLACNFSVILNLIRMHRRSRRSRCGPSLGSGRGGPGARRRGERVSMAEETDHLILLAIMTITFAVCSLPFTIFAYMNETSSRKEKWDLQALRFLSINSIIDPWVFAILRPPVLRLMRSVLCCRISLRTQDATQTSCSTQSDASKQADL", "assay": "FLIPR calcium signal study, HEK-293(EBNA) cells", "assay_type": "cell-based", "procedure": "(§1) Cells were seeded at a density of 5x10^4 cells per well in Biocoat® Poly-D-lysine-coated black-wall, clear-bottom 96-well plates (Becton-Dickinson) and allowed to attach overnight in an incubator at 37 °C. Cells were then washed two times with HBSS-HEPES buffer (Hanks Balanced Salt Solution without bicarbonate and phenol red, 20 mM HEPES, pH 7.4) using a Denley Cellwash plate washer (Labsystems). After 45 minutes of dye-loading in the dark, using the calcium-sensitive dye Fluo-4 AM at a final concentration of 2 µM, plates were washed four times with HBSS-HEPES buffer to remove excess dye leaving 100 µl in each well. Plates were re-equilibrated to 37 °C for a few minutes.\nCells were excited with an Argon laser at 488 nm, and emission was measured through a 510-570 nm bandwidth emission filter (FLIPR™, Molecular Devices, Sunnyvale, CA). […] The peak increase in fluorescence intensity was recorded for each well. […] The peak fluorescence change in each drug-containing well was then expressed relative to the controls.\n(§2) Compounds were tested in a high-throughput (HTS) or concentration-response (CoRe) format. In the HTS format, forty-four compounds per plate were examined in duplicates at a concentration of 10^-5 M. To generate concentration-response curves, four compounds per plate were tested in duplicates in a concentration range between 10^-5 and 10^-11 M. The duplicate values were averaged."}, "human EP2 receptors": {"molecular_target": "T2, human EP2 receptors (Homo sapiens, UniProt P43116)", "T2 construct": "expressed in transfected cells; host or cells: HEK 293", "T2 sequence (P43116 whole entry)": "as above", "assay": "Competition binding, [3H]PGE2, HEK 293 cells stably expressing human EP2 receptors", "procedure": "Competition binding experiments were performed in a medium containing Hank's balanced salt solution, Hepes 20 mM, pH 7.3, membranes (∼60 µg protein) or 2x10^5 cells from HEK 293 cells stably expressing human EP2 receptors, [^3H]PGE2 (10 nM) and various concentrations of test compounds in a total volume of 300 µl. Reaction mixtures were incubated at 23 °C for 60 min, and were filtered over Whatman GF/B filters under vacuum. Filters were washed three times with 5 ml ice-cold buffer containing 50 mM Tris/HCl (pH 7.3). Non-specific binding was estimated in the presence of excess unlabeled PGE2 (10 µM). Binding data fitted to the binding model for a single class of binding sites, using nonlinear regression analysis.\n(§3) HEK-293 cells stably expressing the human or feline FP receptor, or EP1, EP2, or EP4 receptors were washed with TME buffer, scraped from the bottom of the flasks, and homogenized for 30 sec using a Brinkman PT 10/35 polytron. TME buffer was added to achieve a final 40 ml volume in the centrifuge tubes (the composition of TME is 100 mM TRIS base, 20 mM MgCl2, […]; 10N HCl is added to achieve a pH of 7.4).\n(§4) The cell homogenate was centrifuged at 19000 r.p.m. for 20 min at 4° C using a Beckman Ti-60 rotor. The resultant pellet was resuspended in TME buffer to give a final 1 mg/ml protein concentration, as determined by Biorad assay. Radioligand binding competition assays vs. [^3H-]17 -phenyl PGF2α (5 nM) were performed in a 100µl volume for 60 min. Binding reactions were started by adding plasma membrane fraction. The reaction was terminated by the addition of 4 ml ice-cold TRIS-HCl buffer and rapid filtration through glass fiber GF/B filters using a Brandel cell harvester. The filters were washed 3 times with ice-cold buffer and oven dried for one hour.\n(§5) [^3H-] PGE2 (specific activity 180 Ci mmol) was used as the radioligand for EP receptors. [^3H] 17-phenyl PGF2α was employed for FP receptor binding studies. Binding studies employing EP1, EP2, EP4 and FP receptors were performed in duplicate in at least three separate experiments. A 200µl assay volume was used. Incubations were for 60 min at 25°C and were terminated by the addition of 4 ml of ice-cold 50 mM TRIS-HCl, followed by rapid filtration through Whatman GF/B filters and three additional 4 ml washes in a cell harvester (Brandel). Competition studies were performed using a final concentration of 5 nM [^3H]-PGE2, or 5 nM [^3H] 17-phenyl PGF2α and non-specific binding determined with 10^-5M of unlabeled PGE2, or 17-phenyl PGF2α, according to receptor subtype studied."}, "EP4 receptors": {"molecular_target": "T3, EP4 receptors (Homo sapiens, UniProt P35408)", "T3 construct": "expressed in transfected cells; host or cells: HEK-293", "T3 sequence (P35408 whole entry)": "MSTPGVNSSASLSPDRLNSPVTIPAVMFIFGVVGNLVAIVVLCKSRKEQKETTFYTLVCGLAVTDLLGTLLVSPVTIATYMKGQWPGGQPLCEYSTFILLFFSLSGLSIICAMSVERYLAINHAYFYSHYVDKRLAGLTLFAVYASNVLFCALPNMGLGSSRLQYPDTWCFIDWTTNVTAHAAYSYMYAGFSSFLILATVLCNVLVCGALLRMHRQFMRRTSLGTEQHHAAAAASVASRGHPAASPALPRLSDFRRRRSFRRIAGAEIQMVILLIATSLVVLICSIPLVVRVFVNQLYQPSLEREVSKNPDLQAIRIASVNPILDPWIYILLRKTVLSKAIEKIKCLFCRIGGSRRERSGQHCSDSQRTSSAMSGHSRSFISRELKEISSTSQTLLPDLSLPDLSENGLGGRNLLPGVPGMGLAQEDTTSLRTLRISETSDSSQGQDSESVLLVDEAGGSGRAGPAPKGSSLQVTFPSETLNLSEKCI", "assay": "Radioligand binding, EP4 receptor", "conditions": "Table 3; read-out: BINDING (Ki, nM) HEP4", "procedure": "as §3, §4, §5"}, "hEP3A/Gqi5": {"molecular_target": "T4, hEP3A/Gqi5 (Homo sapiens, UniProt P43115)", "T4 construct": "expressed in transfected cells; host or cells: HEK-293(EBNA)", "T4 sequence (P43115 1-390)": "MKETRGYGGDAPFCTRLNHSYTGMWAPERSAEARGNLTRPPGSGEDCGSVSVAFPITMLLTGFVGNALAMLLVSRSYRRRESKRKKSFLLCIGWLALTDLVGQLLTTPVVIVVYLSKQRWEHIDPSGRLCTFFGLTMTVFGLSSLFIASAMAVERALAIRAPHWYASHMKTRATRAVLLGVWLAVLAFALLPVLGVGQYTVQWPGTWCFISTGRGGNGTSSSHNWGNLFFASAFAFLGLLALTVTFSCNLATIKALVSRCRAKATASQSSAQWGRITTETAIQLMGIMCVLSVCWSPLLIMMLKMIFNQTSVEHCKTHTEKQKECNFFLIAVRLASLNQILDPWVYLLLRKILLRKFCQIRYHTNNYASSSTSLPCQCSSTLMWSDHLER", "assay": "FLIPR calcium signal study, HEK-293(EBNA) cells", "assay_type": "cell-based", "procedure": "(§6) HEK-293(EBNA) cells, stably expressing one type or subtype of recombinant human prostaglandin receptors (prostaglandin receptors expressed: hDP/Gqs5; hEP1; hEP2/Gqs5; hEP3A/Gqi5; hEP4/Gqs5; hFP; hIP; hTP), were cultured in 100 mm culture dishes in high-glucose DMEM medium containing 10% fetal bovine serum, 2 mM I-glutamine, 250 µg/ml geneticin (G418) and 200 µg/ml hygromycin B as selection markers, and 100 units/ml penicillin G, 100 µg/ml streptomycin and 0.25 µg/ml amphotericin B.\nas §1\n(§7) Cells were excited with an Argon laser at 488 nm, and emission was measured through a 510-570 nm bandwidth emission filter (FLIPR™, Molecular Devices, Sunnyvale, CA). Drug solution was added in a 50 µl volume to each well to give the desired final concentration. The peak increase in fluorescence intensity was recorded for each well. On each plate, four wells each served as negative (HBSS-HEPES buffer) and positive controls (standard agonists: BW245C (hDP); PGE2 (hEP1; hEP2/Gqs5; hEP3A/Gqi5; hEP4/Gqs5); PGF2α (hFP); carbacyclin (hIP); U-46619 (hTP), depending on receptor). The peak fluorescence change in each drug-containing well was then expressed relative to the controls.\nas §2, with “averaged. In either, HTS or CoRe format each compound was tested on at least 3 separate plates using cells from different passages to give an n ≥ 3.” for “averaged.”"}, "HEP3": {"molecular_target": "T5, HEP3 (Homo sapiens, UniProt P43115)", "T5 sequence (P43115 1-390)": "T4 sequence (P43115 1-390)", "assay": "Radioligand binding, EP3 receptor", "conditions": "Table 3; NA means not active"}, "hTP": {"molecular_target": "T6, hTP (Homo sapiens, UniProt P21731)", "T6 construct": "expressed in transfected cells; host or cells: HEK-293(EBNA)", "T6 sequence (P21731 1-343)": "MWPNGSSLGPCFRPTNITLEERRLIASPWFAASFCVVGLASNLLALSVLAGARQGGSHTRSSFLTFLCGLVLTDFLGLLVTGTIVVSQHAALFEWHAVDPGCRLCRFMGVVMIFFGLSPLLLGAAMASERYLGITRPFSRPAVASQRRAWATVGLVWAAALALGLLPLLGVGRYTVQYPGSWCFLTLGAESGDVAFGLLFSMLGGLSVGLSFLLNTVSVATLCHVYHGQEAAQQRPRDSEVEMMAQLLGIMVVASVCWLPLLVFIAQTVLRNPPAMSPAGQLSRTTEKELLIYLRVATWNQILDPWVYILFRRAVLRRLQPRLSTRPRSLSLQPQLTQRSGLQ", "assay": "FLIPR calcium signal study, HEK-293(EBNA) cells", "assay_type": "cell-based", "conditions": "Table 1; NA means not active; read-out: FUNCTIONAL (Ca2+, EC50, nM) HTP", "procedure": "as §6, §1, §7\nas §2, with “averaged. In either, HTS or CoRe format each compound was tested on at least 3 separate plates using cells from different passages to give an n ≥ 3.” for “averaged.”"}, "[1]": {"conditions": "Table 2, unit inferred, read-out: BINDING HEP2"}, "[2]": {"conditions": "Table 1, Ca2+ signal, NA means not active, read-out: FUNCTIONAL (Ca2+, EC50, nM) HEP 2"}, "[3]": {"conditions": "Table 2, unit inferred, read-out: FUNCTIONAL HEP2"}, "[4]": {"conditions": "Table 3, read-out: FUNCTIONAL (Ca2+, EC50, nM) HEP3A"}}, "note": "Where two headings read alike, the source gives them in different places.", "data": [{"smiles": "CCCCCC(O)c1ccc([C@H]2CCC(=O)[C@@H]2CCCCCCC(=O)O)s1", "note": "(stereo partly drawn)", "values": [{"measurement": "EC50", "setting": "hEP2/Gqs5", "result": 769, "unit": "nM"}, {"measurement": "Ki", "setting": "human EP2 receptors; [1]", "result": 600, "unit": "nM"}]}, {"smiles": "O=C(O)CCCCCC[C@H]1C(=O)CC[C@@H]1c1ccc(C(O)C2CCCCC2)cc1", "note": "(stereo partly drawn) [Entry 13]", "values": [{"measurement": "EC50", "setting": "hEP2/Gqs5; [2]", "result": 2050, "unit": "nM"}]}, {"smiles": "CCCCCC(O)c1ccc([C@H]2CCC=C2CCCCCCC(=O)O)cc1", "note": "(stereo partly drawn)", "values": [{"measurement": "EC50", "setting": "hEP2/Gqs5; [3]", "result": 4880, "unit": "nM"}, {"measurement": "Ki", "setting": "human EP2 receptors; [1]", "result": 2810, "unit": "nM"}]}, {"smiles": "CCCC1(C(O)c2cccc([C@H]3CCC(=O)[C@@H]3C/C=C\\CCCC(=O)O)c2)CCC1", "note": "(stereo partly drawn) [Entry 2]", "values": [{"measurement": "EC50", "setting": "hEP2/Gqs5; [2]", "result": 2660, "unit": "nM"}]}, {"smiles": "CCCCCC(O)c1ccc([C@H]2CCC(=O)[C@@H]2CCCCCCC(=O)O)cc1", "note": "(stereo partly drawn)", "values": [{"measurement": "EC50", "setting": "hEP2/Gqs5; Table 3, read-out: FUNCTIONAL (Ca2+, EC50, nM) HEP2", "result": 284, "unit": "nM"}, {"measurement": "Ki", "setting": "human EP2 receptors; Table 3, read-out: BINDING (Ki, nM) HEP2", "result": 871, "unit": "nM"}, {"measurement": "Ki", "setting": "EP4 receptors", "result": 15000, "unit": "nM"}, {"measurement": "EC50", "setting": "hEP3A/Gqi5; [4]", "result": 90, "unit": "nM"}, {"measurement": "Ki", "setting": "HEP3", "result": 5200, "unit": "nM"}]}, {"smiles": "CCCCCC(O)c1ccc([C@H]2CCC(=O)[C@@H]2CCCCCCC(=O)OC)s1", "note": "(stereo partly drawn)", "values": [{"measurement": "EC50", "setting": "hEP2/Gqs5", "result": 7100, "unit": "nM"}, {"measurement": "Ki", "setting": "human EP2 receptors; [1]", "result": 7100, "unit": "nM"}]}, {"smiles": "CCCCCC(O)c1ccc([C@H]2CCC(=O)[C@@H]2C/C=C\\CCCC(=O)OC)cc1", "note": "(stereo partly drawn) [drawing 115]", "values": [{"measurement": "Ki", "setting": "EP4 receptors", "result": 15000, "unit": "nM"}, {"measurement": "EC50", "setting": "hEP3A/Gqi5; [4]", "result": 15000, "unit": "nM"}]}, {"smiles": "CCCC1(C(O)c2cccc([C@H]3CCC(=O)[C@@H]3C/C=C\\CCCC(=O)OC)c2)CCC1", "note": "(stereo partly drawn) [Entry 1]", "values": [{"measurement": "EC50", "setting": "hTP", "result": "> 10000", "unit": "nM"}]}, {"smiles": "COC(=O)CCCCCC[C@H]1C(=O)CC[C@@H]1c1ccc(C(O)C2CCCCC2)cc1", "note": "(stereo partly drawn) [Entry 12]", "values": [{"measurement": "EC50", "setting": "hEP2/Gqs5; [2]", "result": "> 10000", "unit": "nM"}, {"measurement": "EC50", "setting": "hTP", "result": "> 10000", "unit": "nM"}]}, {"smiles": "COC(=O)CCC/C=C\\C[C@H]1C(=O)CC[C@@H]1c1ccc(C(O)C2CCCCC2)cc1", "note": "(stereo partly drawn) [Entry 10]", "values": [{"measurement": "EC50", "setting": "hEP2/Gqs5; [2]", "result": "> 10000", "unit": "nM"}]}, {"smiles": "CCCC1(C(O)c2cccc([C@H]3CCC(=O)[C@@H]3CCCCCCC(=O)O)c2)CCC1", "note": "(stereo partly drawn) [Entry 4]", "values": [{"measurement": "EC50", "setting": "hEP2/Gqs5; [2]", "result": 3410, "unit": "nM"}, {"measurement": "EC50", "setting": "hEP3A/Gqi5; Table 1, NA means not active, read-out: FUNCTIONAL (Ca2+, EC50, nM) HEP 3A", "result": 3830, "unit": "nM"}]}, {"smiles": "CCCCC(O)c1ccc([C@H]2CCC(=O)[C@@H]2CCCCCCC(=O)OC)cc1", "note": "(stereo partly drawn)", "values": [{"measurement": "EC50", "setting": "hEP2/Gqs5; [3]", "result": 15000, "unit": "nM"}, {"measurement": "Ki", "setting": "human EP2 receptors; [1]", "result": 15000, "unit": "nM"}]}, {"smiles": "CC(C)(C)c1ccc([C@H]2CCC(=O)[C@@H]2C/C=C\\CCCC(=O)O)cc1", "note": "[Entry 8]", "values": [{"measurement": "EC50", "setting": "hEP2/Gqs5; [2]", "result": 1050, "unit": "nM"}]}]}
